According to patent US11672766B2, “Therapeutic cationic peptides and unimolecular nanoparticles for efficient delivery thereof” (Wisconsin Alumni Research Foundation, priority 2017, dated 2023):
Where no end group is shown, it is not given here. [ ]: non-standard residue; d: D form. Arg(Me2a) = CN(C)C(=N)NCCC[C@H](N)C(=O)O

Columns and labels:
[1] = target: T1, CARM1-mediated methylation of PKM2 (Homo sapiens, UniProt Q86X55); assay: In vitro methylation assay of PKM2 by CARM1 (3H-SAM, autoradiography); type: biochemical; conditions: for PKM2 methylation by CARM1: FBP 100 μM or TEPP-46 1 μM; for CARM1-mediated methylation of PKM2: free peptide or peptide encapsulated in UMNP
T1 construct: HaloTag (cleaved yes); made in house; host or cells: CARM1: HEK293T (transient)
T1 sequence (Q86X55 1-608): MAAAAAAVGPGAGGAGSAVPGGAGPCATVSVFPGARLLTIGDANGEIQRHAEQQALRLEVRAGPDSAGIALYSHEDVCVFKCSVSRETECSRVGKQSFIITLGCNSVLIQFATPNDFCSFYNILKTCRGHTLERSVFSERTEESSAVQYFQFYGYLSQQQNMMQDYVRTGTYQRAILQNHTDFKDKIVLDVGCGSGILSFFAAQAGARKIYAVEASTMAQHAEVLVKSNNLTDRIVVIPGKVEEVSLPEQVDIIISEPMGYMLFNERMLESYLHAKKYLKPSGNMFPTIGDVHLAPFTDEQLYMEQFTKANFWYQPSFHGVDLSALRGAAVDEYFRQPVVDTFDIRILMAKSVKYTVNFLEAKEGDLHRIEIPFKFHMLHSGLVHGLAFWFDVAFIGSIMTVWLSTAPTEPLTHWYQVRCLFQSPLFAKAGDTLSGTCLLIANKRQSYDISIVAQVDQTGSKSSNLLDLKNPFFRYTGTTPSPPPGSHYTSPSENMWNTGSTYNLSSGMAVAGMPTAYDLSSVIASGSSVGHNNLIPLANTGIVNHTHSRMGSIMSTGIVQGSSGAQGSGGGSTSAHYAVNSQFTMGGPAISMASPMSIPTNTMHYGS
Description: (§1) In vitro methylation assay was performed as previously described (Wang et al., 2014). Purified histones or purified substrate proteins were mixed with the protein arginine methyltransferases (PRMTs) in the presence of ^3H-SAM. [^3H]-labeled substrates were resolved by SDS-PAGE and detected by autoradiography.
Human PRMT1-8 cDNAs were cloned into pFN21K HaloTag CMV Flexi Vector (Promega) (Wang et al., 2014). These plasmids were transiently transfected into HEK293T cells for 36 hours. The cells were harvested in binding buffer (HEPES 50 mM, NaCl 150 mM, NP40 0.005%, 0.5 mM EDTA, pH 7.5) and sonicated at 35% power (amplitude) with 10 s on, 30 s off, 4-6 cycles on ice, and then centrifuged and collected the supernatant. The supernatant was incubated with HaloLink resin (Promega) overnight at 4° C. The beads were washed with binding buffer twice and then incubated with 1M urea in binding buffer for 20 min at room temperature. After washing the beads with binding buffer twice, the proteins were eluted with 20 μg/mL TEV in cleavage buffer (DTT 1 mM in binding buffer). For purification of Flag-tagged proteins, the plasmids were transiently transfected into HEK293T cells for 36 hours. The cells were harvested in lysis buffer on ice for 30 min, and then centrifuged and collected the supernatant. Flag M2 Affinity Gel was added into the supernatant and incubated for 2 hours, and then the Gel was washed with PBS four times. The proteins were eluted by 150 μg/mL 3× Flag peptide in 0.5 M Tris HCl and 1M NaCl pH 7.5. For His-tagged or GST-tagged proteins purification, PKM1 and PKM2 cDNA were inserted pET-21a (+) or pGEX-2T plasmid. The plasmids were then transfected into E. coli BL-21 competent cells. Protein expression was induced by the presence of 0.5 mM IPTG overnight at 20° C. After centrifugation, pellet was resuspended in sonication buffer (1% Triton X-100, 1 mM EDTA, 1 mM DTT in PBS) and sonicated at 50% power (amplitude) with 30 s on, 30 s off, 10 cycles on ice or until the suspension became clear. After centrifugation, the supernatant was incubated with Ni-NTA Agarose or Glutathione Agarose Resin for 2 hours at room temperature. For His-tagged proteins, Beads were washed with PBS twice, then washed with 10 mM imidazole in elution buffer (1% Triton X-100, 0.1% glycerol in PBS) once. The His-tagged proteins were eluted with 250 mM imidazole. For GST-tagged proteins, beads were washed with PBS four times and eluted with glutathione elution buffer (50 mM Glutathione, 50 mM Tris HCl, pH 8.0, 100 mM NaCl, and 1 mM EDTA). The eluted proteins were dialyzed with PBS containing 0.1% glycerol.

[2] = target: T2, histone H3 methylation by CARM1 (Homo sapiens, UniProt Q86X55); assay: In vitro methylation assay of control substrate histone H3 by CARM1; type: biochemical; conditions: FBP 100 μM or TEPP-46 1 μM
T2 construct: HaloTag (cleaved yes); made in house; host or cells: HEK293T (transient transfection)
T2 sequence (Q86X55 1-608): T1 sequence (Q86X55 1-608)
Description: as §1

[3] = system: MCF7 cells (parental, PKM2 KO, PKM2wt/shPKM1, PKM2mut/shPKM1); assay: Cell death by PI staining after IP3Rs inhibition; type: cell-based; conditions: MCF7 lines, 3.5 μM XeB, 24 hours
Description: (§2) Cell apoptosis and death assays were based on the previously described method. See Cardenas, C., et al., “Selective Vulnerability of Cancer Cells by Inhibition of Ca(2+) Transfer from Endoplasmic Reticulum to Mitochondria,” Cell Rep 14, 2313-2324 (2016). Briefly, cell apoptosis was determined by annexin V/APC and propidium iodide (PI) staining. Cell death was determined by PI staining using flow cytometry.

[4] = system: MDA-MB-231 cells (parental, PKM2 KO, PKM2wt/shPKM1, PKM2mut/shPKM1); assay: Cell death by PI staining after IP3Rs inhibition; type: cell-based, human; conditions: MDA-MB-231 lines, 5 μM XeB, 24 hours
Description: as §2

[5] = system: MCF7 cells; assay: Oxygen consumption rate (OCR), Seahorse XF96; type: cell-based; conditions: TEPP-46 vs DMSO, DCA treated
Description: (§3) The OCR was measured in an XF96 extracellular analyzer (Seahorse Bioscience). 2×10^4 cells per well were seeded into the 96-well plate and incubated in DMEM media with 10% FBS at 37° C. overnight. Next day, the media was changed to analysis media containing 10 mM glucose. The cells were incubated in a CO2-free incubator at 37° C. for 1 hour. Cells were sequentially exposed to oligomycin ([…] FCCP (0.5 μM) and rotenone (0.5 μM). Each point in traces represent the average of measurement from six different wells.

[6] = system: MDA-MB-231 cells; assay: Oxygen consumption rate (OCR), Seahorse XF96; type: cell-based, human; conditions: TEPP-46 vs DMSO, DCA treated
Description: as §3

[7] = system: MCF7 cells; assay: Lactate production normalized to cell numbers; type: cell-based; conditions: TEPP-46 vs DMSO, DCA treated
[8] = system: MDA-MB-231 cells; assay: Lactate production normalized to cell numbers; type: cell-based, human; conditions: TEPP-46 vs DMSO, DCA treated
[9] = system: methyl-PKM2; assay: Western blot analysis of methyl-PKM2 in MCF7 cells; type: cell-based; conditions: TEPP-46 vs DMSO
Description: Methyl-PKM2 specific anti-peptide antibody was prepared by Genemed Synthesis Inc., TX, using standard methods of peptide synthesis. The KLH-conjugated PKM2 peptide RYR(as)PR(as)[…] (SEQ ID NO: 58), with R445 and R447 asymmetrically dimethylated was synthesized. The peptide corresponding to human PKM2 amino acids 443-454, was used to immunize rabbits. To purify the di-me-PKM2 specific antibody, 10 mg dimethyl peptide (column A) and 10 mg control peptide (non-methyl) (column B) were coupled separately to cyanogen bromide activated agarose beads. 100 ml of antisera was then incubated with the peptide-agarose column A. The unbound antiserum was washed with 1×PBS buffer. After several washes, the antibody was eluted with 0.1 M glycine, pH 2.5; neutralized with 1M […] Tris, pH 8.0. The antibody was stabilized with 0.1% BSA [Elution A]. Elution A was then incubated with column B and then same procedure was followed for elution. The flow through from column B was the dimethyl-specific antibody (methyl-PKM2). The antisera and purified antibody were then tested by enzyme-linked immunosorbent assay (ELISA).

[10] = system: IP3R3; assay: Western blot analysis of IP3R3 protein levels in MCF7 cells; type: cell-based; conditions: parental MCF7, TEPP-46 vs DMSO
[11] = system: MCF7 cells; assay: MTT cell proliferation assay; type: cell-based; conditions: peptides delivered by UMNP (FIG. 14E)
Description: (§4) For quantitative proliferation assays, 1000 cells per well were seeded onto 96-well plates. 3-(4,5-dimethylthiazol-2-yl)-2,5-diphenyltetrazolium bromide (MTT) solution (20 μL per well, 4 mg/mL) was added into the wells and incubated 4 hours. After discarding the supernatant, 200 μL DMSO was added and the absorbance value (optical density) was measured at 490 nm on a Victor X5 microplate reader (Perkin Elmer, Waltham, Mass.). In the next 3 days, the absorbance value was measured every day. For 5-Ethynyl-2′-deoxyuridine (EdU) incorporation assay, 3×10^5 cells were seeded into 6-well plate and incubated 10 μM EdU for 1 hour, followed by the procedures described in the Click-iT® EdU cytometry assay kit according to the manufacturer's instructions. Cells were then analyzed on BD LSRII. For clonogenicity assay, 1000 viable transfected cells were placed in six-well plates and maintained in complete medium for 2 weeks. Colonies were washed with PBS and fixed with 3.7% formaldehyde for 15 min at room temperature, and then stained for 20 min with 0.05% crystal violet.

[12] = system: MDA-MB-231 cells; assay: Transwell cell migration assay; type: cell-based, human; conditions: peptides delivered by UMNP (FIG. 14F)
Description: (§5) Cell migration assay was performed as previously described (Wang et al., 2014) using 8.0 μm pore size Transwell inserts (Costar Corp., Cambridge, Mass.). Briefly, 1×10^5 cells in 100 μL serum free media were added into the upper chamber, 500 μL culture media with 20% FBS was in the lower well. After 12 hours culture, removed the cells on the upper surface of the membrane and fixed the migrant cells attached to the lower surface with 3.7% formaldehyde in culture media at 37° C. for 15 min, and then stained for 20 min with 0.05% crystal violet.

[13] = system: MCF7 PKM2mut/shPKM1, MDA-MB-231 PKM2mut/shPKM1, MCF7 CARM1 KO cells; assay: MTT cell growth in ROS highly producing cells; type: cell-based; conditions: PKM2 KO, PKM2 KO expressing PKM2mut and CARM1 KO cells
Description: as §4

[14] = system: MDA-MB-231 PKM2mut/shPKM1 cells; assay: Cell migration of ROS highly producing cells; type: cell-based, human
Description: as §5

| Molecule | PKM2 methylation by CARM1 [1] | histone H3 methylation by CARM1 [2] | CARM1-mediated methylation of PKM2 [1] | proliferation of MCF7 cells (MTT) [11] | migration of MDA-MB-231 cells (transwell) [12] | other results |
| --- | --- | --- | --- | --- | --- | --- |
| O=P(O)(O)OC[C@H]1O[C@](O)(COP(=O)(O)O)[C@@H](O)[C@@H]1O [FBP] | blockage of PKM2 methylation by CARM1 | neither TEPP-46 nor FBP treatment affected histone H3 methylation by CARM1 | – | – | – | – |
| C[C@@H]1CN2CCC[C@H]3CCCCCC[C@H]4CCN5CCC[C@@](O)(CCCCCC[C@@H]1O[C@H]32)[C@H]5O4 [XeB, Xestospongin B] | – | – | – | – | – | cell death (vulnerability to IP3Rs inhibition) [3]: PKM2 KO or PKM2^mut cells are more vulnerable to XeB than parental and PKM2^wt cells; cell death (vulnerability to IP3Rs inhibition) [4]: PKM2 KO or PKM2^mut cells are more vulnerable to XeB than parental and PKM2^wt cells |
| Cn1c2cc([S+](C)[O-])sc2c2cnn(Cc3cccc(N)c3)c(=O)c21 (centres unmarked) [TEPP-46] | blockage of PKM2 methylation by CARM1 | neither TEPP-46 nor FBP treatment affected histone H3 methylation by CARM1 | – | – | – | OCR [5]: significantly increased OCR; OCR [6]: significantly increased OCR; lactate production [7]: decreasing lactate production; lactate production [8]: decreasing lactate production; methyl-PKM2 level in cells [9]: blocking its methylation; IP3R3 expression [10]: elevated IP3R3 expression |
| RYRPRAPIIAVT [non-methyl-peptide] | – | – | abrogated CARM1-mediated methylation of PKM2 | inhibited proliferation of the MCF7 cells | inhibited proliferation of the MCF7 cells (FIG. 14E) and migration of MDA-MB-231 cells | – |
| CC1(C)CC(NC(=O)C[P+](c2ccccc2)(c2ccccc2)c2ccccc2)CC(C)(C)N1[O] [mitTEMPO] | – | – | – | – | – | cell proliferation [13]: did not alter cell proliferation and migration; cell migration [14]: did not alter cell proliferation and migration |
| methyl-peptide: negative control: corresponding peptide with R445 and R447 asymmetrically di-methylated (RY[Arg(Me2a)]P[Arg(Me2a)]APIIAVT; also: R445 and R447 asymmetrically di-methylated) | – | – | but not the control methyl-peptide, abrogated CARM1-mediated methylation of PKM2 | but not methyl-peptide, inhibited proliferation of the MCF7 cells | but not methyl-peptide, inhibited proliferation of the MCF7 cells (FIG. 14E) and migration of MDA-MB-231 cells | – |
